Patent US4474747A, “Process for increasing the tolerance of X-ray contrast media, and contrast media obtained thereby” (Guerbet S.A., priority 1981, dated 1984)

Assays:
[1] = target: proteins (Homo sapiens, UniProt P02768); assay: Protein binding, Brodersen technique; format: in vitro ADME
Source text: The degree of the interaction with proteins is an index of the tolerance of contrast media. The lower this interaction, the better the tolerance.
The protein binding was investigated according to the Brodersen technique (J. of Clinical Investigation, 1974, vol. 4, 1353-1364).

[2] = system: Mice; assay: Acute intracisternal toxicity (method of Melartin et al.), mice; format: in vivo
Description: (§1) Acute intracisternal toxicity was determined by the method of E. Melartin, P. Tuohimaa, R. Dabb, Investigative Radiology, 1970, vol. 5, n°1, 13-21.

[3] = system: Rats; assay: Acute intracisternal toxicity (method of Melartin et al.), rats; format: in vivo
Description: as §1

Chain of proteins (P02768 25-609): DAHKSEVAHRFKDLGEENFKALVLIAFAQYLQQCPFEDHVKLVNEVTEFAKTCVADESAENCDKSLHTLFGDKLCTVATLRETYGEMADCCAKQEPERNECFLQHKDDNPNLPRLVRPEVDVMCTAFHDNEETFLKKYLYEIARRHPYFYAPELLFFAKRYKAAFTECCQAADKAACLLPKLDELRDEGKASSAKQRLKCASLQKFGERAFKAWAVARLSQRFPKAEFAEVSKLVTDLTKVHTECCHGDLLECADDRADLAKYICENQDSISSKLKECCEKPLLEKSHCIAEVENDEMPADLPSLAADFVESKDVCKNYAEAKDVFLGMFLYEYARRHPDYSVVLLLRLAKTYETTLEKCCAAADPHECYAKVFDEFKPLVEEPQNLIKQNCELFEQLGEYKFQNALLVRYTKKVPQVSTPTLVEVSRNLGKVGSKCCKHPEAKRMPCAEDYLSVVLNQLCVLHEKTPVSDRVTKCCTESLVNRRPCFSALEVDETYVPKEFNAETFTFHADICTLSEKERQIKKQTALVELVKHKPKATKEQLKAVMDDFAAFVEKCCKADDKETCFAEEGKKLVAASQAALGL

Row | Kd [1] | Structure (SMILES) | other results
1 | 8.2 mM | CNC(=O)c1c(I)c(C(=O)NCC(=O)Nc2c(I)c(C(=O)O)c(I)c(C(=O)NCCO)c2I)c(I)c(N(C)C(C)=O)c1I [Methylglucamine ioxaglate] | 
2 |  | CC(=O)Nc1c(I)c(C(=O)O)c(I)c(C(=O)NCCO)c1I [Telebrix] | Acute toxicity IC (DL50) Mice [2]: 0.2 g Eq iodine/kg
3 | 0.0781 mM | O=C(CCCCC(=O)Nc1c(I)cc(I)c(C(=O)O)c1I)Nc1c(I)cc(I)c(C(=O)O)c1I [Methylglucamine adipiodone] | 
4 |  | CNC(=O)c1c(I)c(NC(C)=O)c(I)c(C(=O)O)c1I [Contrix (methylglucamine iothalamate), methylglucamine iothalamate] | Acute toxicity IC (DL50) Rats [3]: 0.028 mole/rat
